Experimental data as given in patent publication US8399490B2, “Insecticides” (Syngenta Crop Protection LLC, priority 2007, dated 2013).
Like-named read-outs stand apart in the source and are kept apart here.

Columns and labels:
[1] = test system: Plutella xylostella (diamond back moth); test: Example B3: Plutella xylostella (larvicide, feeding/residual contact activity, preventive), artificial diet MTP; type: in vivo; conditions: 120 h, L2 larvae on artificial diet, 5 days incubation
Method: (§1) Plutella xylostella (Diamond Back Moth) (Larvicide, Feeding/Residual Contact Activity, Preventive) 24-well microtiter plate (MTP) with artificial diet is treated with test solutions by pipetting. After drying, the MTP's are infested with larvae (L2) (10-15 per well). After an incubation period of 5 days, samples are checked for larval mortality, antifeedant and growth regulation.

[2] = test system: Heliothis virescens (tobacco budworm); test: Example B2: Activity against Heliothis virescens (ovo-larvicide, feeding/contact activity, curative), eggs on artificial diet; type: in vivo; conditions: 96 h, 4 days incubation
Method: Activity Against Heliothis virescens (Tobacco Budworm) (Ovo-Larvicide, Feeding/Contact Activity, Curative) Eggs (0-24 h old) are placed in 24-well microtiter plate on artificial diet and treated with test solutions by pipetting. After an incubation period of 4 days, samples are checked for egg mortality, larval mortality, and growth regulation.

[3] = test system: Spodoptera littoralis (Egyptian cotton leafworm); test: Example B1: Activity against Spodoptera littoralis (larvicide, feeding/residual contact activity, preventive), cotton leaf discs; type: in vivo; conditions: foliar, 72 h, L1 larvae on cotton leaf discs, 3 days after treatment
Source text: Activity Against Spodoptera littoralis (Egyptian Cotton Leafworm)
(§2) (Larvicide, Feeding/Residual Contact Activity, Preventive)
The samples are checked for mortality, repellent effect, feeding behaviour, and growth regulation 3 days after treatment. In this test, compounds listed in Table P above show good activity. In particular compounds P.1, P.2, P.3, P.4, P.5, P.6, P.7, P.8, P.9, P.10, P.11, P.12, P.13, P.14, P.15, P.16, P.17, P.18, P.19, P.20, P.21, P.22, P.23, P.24, P.25, P.26, P.27, P.28, P.29, P.30, P.31, P.32, P.33, P.34, P.35, P.36, P.37, P.38, P.39, P.40, P.41, P.42, P.43, P.44, P.46, P.50, P.51, P.52, P.55, P.56, P.57, P.58, P.59, P.60, P61, P.66, P.67, P.68, P.69, P.70, P.71, P.72, P.73, P.74, P.75, P.76, P.77, P.78, P.83, P.84, P.87 and P.88 show an activity of over 80% at a concentration of 400 ppm.

[4] = test system: Plutella xylostella (diamond back moth); test: Example B8: comparison with state of the art, Plutella xylostella (larvicide, feeding/residual contact activity, preventive); type: in vivo
Method: Plutella xylostella (Diamond Back Moth)
as §2
24-well microtiter plate (MTP) with artificial diet is treated with test solutions by pipetting. After drying, the MTP's are infested with larvae (L2) (10-15 per well). After an incubation period of 5 days, samples are checked for larval mortality, antifeedant and growth regulation.

[5] = test system: Diabrotica balteata (corn root worm); test: Example B4: Diabrotica balteata (larvicide, feeding/residual contact activity, preventive), artificial diet MTP; type: in vivo; conditions: 120 h, L2 larvae on artificial diet, 5 days incubation
Method: as §1, with “Diabrotica balteata (Corn Root Worm)” for “Plutella xylostella (Diamond Back Moth)”, “(6-10” for “(10-15”

[6] = test system: Spodoptera littoralis (Egyptian cotton leafworm); test: Example B9: comparison with state of the art, Spodoptera littoralis (larvicide, feeding/residual contact activity, preventive); type: in vivo
[7] = test system: Myzus persicae (green peach aphid); conditions: foliar, 144 h, read-out: activity
[8] = test system: Myzus persicae (green peach aphid); test: Example B6: Activity against Myzus persicae (mixed population, systemic/feeding activity, curative), pea seedling roots in test solution; conditions: 144 h, read-out: activity

melting point [°C]	Structure (SMILES)	pest or weed control at 400 ppm [1] [%]	pest or weed control at 400 ppm [2] [%]	pest or weed control at 400 ppm [3] [%]	pest or weed control at 400 ppm [5] [%]	pest or weed control at 400 ppm [7] [%]	pest or weed control at 400 ppm [8] [%]	further results
178 to 179	CCNC(=O)c1c(NC(=O)c2cc(Br)nn2-c2ncccc2Cl)ccc2c1OCO2 [P.65]	–	–	–	–	–	–	–
205 to 206	CNC(=O)c1c(NC(=O)c2cc(C(F)F)nn2-c2ncccc2Cl)c(C)cc2c1OC(C)C2 (stereo not drawn)	–	–	–	–	–	–	–
211 to 213	CNC(=O)c1c(NC(=O)c2cc(C(F)F)nn2-c2ncccc2Cl)ccc2c1OC(C)C2 (stereo not drawn) [P.85]	–	–	–	–	–	–	–
88 to 90	CC(C)(CS(C)(=O)=O)NC(=O)c1c(NC(=O)c2cc(C(F)(F)F)nn2-c2ncccc2Cl)c(Cl)cc2c1OCO2	–	–	–	–	–	–	–
–	CC(C)NC(=O)c1c(NC(=O)c2cc(C(F)(F)F)nn2-c2ncccc2Cl)c(Cl)cc2c1OC(F)(F)O2 [P.13]	> 80	> 80	> 80	> 80	–	–	Death rate (%) after 5 days ([4]; Concentration 12.5 ppm): 100%; Death rate (%) after 5 days ([4]; Concentration 50 ppm): 100%; Death rate (%) after 5 days ([4]; Concentration 200 ppm): 100%; insecticidal action compared with the compound from the state of the art (T91.3) ([4]; on Plutella xylostella, especially at low application rates): substantially better insecticidal action; Death rate (%) after 5 days ([6]; Concentration 12.5 ppm): 100%; Death rate (%) after 5 days ([6]; Concentration 50 ppm): 100%; Death rate (%) after 5 days ([6]; Concentration 200 ppm): 100%; insecticidal action compared with the compound from the state of the art (T91.3) ([6]; on Spodoptera littoralis, especially at low application rates): substantially better insecticidal action
173 to 174	CSCC(C)(C)NC(=O)c1c(NC(=O)c2cc(C(F)(F)F)nn2-c2ncccc2Cl)c(C)cc2c1OC(F)(F)O2	–	–	–	–	–	–	–
140 to 142	Cc1cc2c(c(C(=O)NC(C)C)c1NC(=O)c1cc(C(F)F)nn1-c1ncccc1Cl)OC(C)C2 (stereo not drawn)	–	–	–	–	–	–	–
216 to 217	COc1cc(C(=O)Nc2ccc3c(c2C(=O)NC(C)C)OCO3)n(-c2ncccc2Cl)n1 [P.64]	–	–	–	–	–	–	–
–	CSCC(C)(C)NC(=O)c1c(NC(=O)c2cc(Br)nn2-c2ncccc2Cl)c(C)cc2c1OC(F)(F)O2 [P.27]	> 80	> 80	> 80	> 80	> 80	> 80	–
–	CSCC(C)(C)NC(=O)c1c(NC(=O)c2cc(C(F)(F)F)nn2-c2ncccc2Cl)c(Cl)cc2c1OC(F)(F)O2 [P.16]	> 80	> 80	> 80	> 80	> 80	> 80	–
240 to 242	C[S+]([O-])CC(C)(C)NC(=O)c1c(NC(=O)c2cc(Cl)nn2-c2ncccc2Cl)c(Cl)cc2c1OC(F)(F)O2 (stereo not drawn)	–	–	–	–	–	–	–
169 to 170	CC(C)NC(=O)c1c(NC(=O)c2cc(C(F)F)nn2-c2ncccc2Cl)ccc2c1OC(C)C2 (stereo not drawn) [P.86]	–	–	–	–	–	–	–
188 to 190	CC(C)(CS(C)(=N)=O)NC(=O)c1c(NC(=O)c2cc(Cl)nn2-c2ncccc2Cl)c(Cl)cc2c1OC(F)(F)O2 (stereo not drawn)	–	–	–	–	–	–	–
–	CC(C)NC(=O)c1cc2c(c(Cl)c1NC(=O)c1cc(C(F)(F)F)nn1-c1ncccc1Cl)OC(F)(F)O2 [T91.3, reference compound]	–	–	–	–	–	–	Death rate (%) after 5 days ([4]; Concentration 12.5 ppm): 0%; Death rate (%) after 5 days ([4]; Concentration 50 ppm): 80%; Death rate (%) after 5 days ([4]; Concentration 200 ppm): 100%; Death rate (%) after 5 days ([6]; Concentration 12.5 ppm): 0%; Death rate (%) after 5 days ([6]; Concentration 50 ppm): 0%; Death rate (%) after 5 days ([6]; Concentration 200 ppm): 100 (growth) %
203 to 204	Cc1cc2c(c(C(=O)NC(C)C)c1NC(=O)c1cc(OC(F)F)nn1-c1ncccc1Cl)OC(F)(F)O2	–	–	–	–	–	–	–
–	CNC(=O)c1c(NC(=O)c2cc(Br)nn2-c2ncccc2Cl)c(Cl)cc2c1OC(F)(F)O2 [P.18]	> 80	> 80	> 80	> 80	> 80	> 80	–
–	CSCC(C)(C)NC(=O)c1c(NC(=O)c2cc(Br)nn2-c2ncccc2Cl)c(Cl)cc2c1OC(F)(F)O2 [P.20]	> 80	> 80	> 80	> 80	> 80	> 80	–
236 to 237	CNC(=O)c1c(NC(=O)c2cc(OC(F)F)nn2-c2ncccc2Cl)c(C)cc2c1OC(F)(F)O2	–	–	–	–	–	–	–
–	CSCC(C)(C)NC(=O)c1c(NC(=O)c2cc(Cl)nn2-c2ncccc2Cl)c(C)cc2c1OC(F)(F)O2 [P.31]	> 80	> 80	> 80	> 80	> 80	> 80	–
–	CC(C)NC(=O)c1c(NC(=O)c2cc(Br)nn2-c2ncccc2Cl)c(Cl)cc2c1OC(F)(F)O2 [P.19]	> 80	> 80	> 80	> 80	> 80	> 80	–
–	CSCC(C)(C)NC(=O)c1c(NC(=O)c2cc(Cl)nn2-c2ncccc2Cl)c(Cl)cc2c1OC(F)(F)O2 [P.24]	> 80	> 80	> 80	> 80	> 80	> 80	–
